Measurements published in patent US10738043B2, “GLS1 inhibitors for treating disease” (Board of Regents, The University of Texas System, priority 2015, dated 2020).
Where two headings read alike, the source gives them in different places.

Assays:
[1] = biological target: T1, GLS1 (purified recombinant human GAC) (Homo sapiens, UniProt O94925); assay: GLS1 Enzymatic Activity Assay (dual-coupled enzymatic assay); assay type: biochemical; conditions: 50 mM potassium phosphate, 1 mM glutamine, read-out: IC50 against GLS1
T1 sequence (O94925 55-598 isoform O94925-3 limits assumed): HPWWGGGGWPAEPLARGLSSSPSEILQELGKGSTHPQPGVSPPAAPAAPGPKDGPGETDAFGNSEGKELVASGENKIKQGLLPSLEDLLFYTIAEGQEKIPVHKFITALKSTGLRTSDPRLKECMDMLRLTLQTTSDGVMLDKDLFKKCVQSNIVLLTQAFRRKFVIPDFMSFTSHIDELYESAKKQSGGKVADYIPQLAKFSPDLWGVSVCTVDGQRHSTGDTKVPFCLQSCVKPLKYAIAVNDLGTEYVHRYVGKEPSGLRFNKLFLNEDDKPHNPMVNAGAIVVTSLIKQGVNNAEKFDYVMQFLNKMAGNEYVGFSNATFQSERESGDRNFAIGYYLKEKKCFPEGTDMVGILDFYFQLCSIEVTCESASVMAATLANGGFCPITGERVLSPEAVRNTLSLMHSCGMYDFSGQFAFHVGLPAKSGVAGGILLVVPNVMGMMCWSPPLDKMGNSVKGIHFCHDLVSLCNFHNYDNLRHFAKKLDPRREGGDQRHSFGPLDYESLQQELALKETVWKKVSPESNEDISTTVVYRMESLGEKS
Protocol: GLS1 Enzymatic Activity Assay
The inhibition of purified recombinant human GAC by varying concentrations of inhibitors is assessed via a dual-coupled enzymatic assay. The glutamate produced by the glutaminase reaction is used by glutamate oxidase to produce α-ketoglutarate, ammonia, and hydrogen peroxide, with this hydrogen peroxide subsequently being used by horseradish peroxidase to produce resorufin in the presence of Amplex UltraRed. The assay buffer consisted of 50 mM HEPES (pH 7.4), 0.25 mM EDTA and 0.1 mM Triton X-100. GAC was incubated with potassium phosphate (10 minutes at room temperature) prior to incubation with inhibitor (10 minutes at room temperature). The final reaction conditions were as follows: 2 nM GAC, 50 mM potassium phosphate, 100 mU/ml glutamate oxidase (Sigma), 1 mM glutamine (Sigma), 100 mU/ml horseradish peroxidase (Sigma), 75 μM Amplex UltraRed (Life Technologies), and 1% (v/v) DMSO. The production of resorufin was monitored on a Perkin Elmer Envision plate reader (excitation 530 nm, emission 590 nm) either in a kinetics or endpoint mode (at 20 minutes). IC50 values were calculated using a four-parameter logistic curve fit.

A549 cells = assay: Proliferation Assay (A549 viability, Cell Titer Fluor, 72 hours); assay type: cell-based; conditions: read-out: EC50 against A549 cell proliferation
Protocol: A549 cells were routinely maintained in RPMI 1640 media (Gibco catalog number 11875-093) supplemented with 10% dialyzed fetal bovine serum using a humidified incubator (37° C., 5% CO2 and ambient O2). In preparation for the viability assay, cells were inoculated into 384-well black CulturPlates (Perkin Elmer) at a density of 1000 cells/well in a volume of 40 μl. Following a 24-hour incubation at 37° C., 5% CO2 and ambient 02, cells were treated with compound (10 μl) in a final DMSO concentration of 0.5% (v/v). The microplates were then incubated for 72 hours (37° C., 5% CO2 and ambient O2). Cell Titer Fluor (Promega) was subsequently added (10 μl of 6× reagent) and mixed for 15 minutes at room temperature. The plates were then incubated for 30 minutes (37° C., 5% CO2 and ambient O2) and fluorescence was subsequently read on the Perkin Elmer Envision plate reader. EC50 values were calculated using a four-parameter logistic curve fit.

Compound	IC50 [1] [nM]	EC50 (A549 cells; Homo sapiens) [nM]	EC50 (A549 cells) [nM]
Cc1cccc(CC(=O)Nc2ccc(C3CCN(c4nnc(C(=O)NCc5cc(C(F)(F)F)ccn5)s4)C3)nn2)n1 (stereo not drawn) [Example 49, 5-(3-(6-(2-(6-methylpyridin-2-yl)acetamido)pyridazin-3-yl)pyrrolidin-1-yl)-N-((4-(trifluoromethyl)pyridin-2-yl)methyl)-1,3,4-thiadiazole-2-carboxamide]	< 100	< 100	
Cc1cccc(CNC(=O)c2nnc(N3CCC(c4ccc(NC(=O)Cc5cccc(C)n5)nn4)C3)s2)n1 (stereo not drawn) [Example 50, 5-(3-(6-(2-(6-methylpyridin-2-yl)acetamido)pyridazin-3-yl)pyrrolidin-1-yl)-N-((6-methylpyridin-2-yl)methyl)-1,3,4-thiadiazole-2-carboxamide]	< 100	< 100	
Cc1cc(OC2CC(F)(F)C2)cc(CC(=O)Nc2ccc(C3CCN(c4nnc(C(=O)NCc5ccccn5)s4)C3)nn2)n1 (stereo not drawn) [Example 51, 5-(3-(6-(2-(4-(3,3-difluorocyclobutoxy)-6-methylpyridin-2-yl)acetamido)pyridazin-3-yl)pyrrolidin-1-yl)-N-(pyridin-2-ylmethyl)-1,3,4-thiadiazole-2-carboxamide]	< 100	< 100	
Cc1cc(OC2CC(F)(F)C2)cc(CC(=O)Nc2ccc(C3CCN(c4nnc(C(=O)NCc5cc(C(F)(F)F)ccn5)s4)C3)nn2)n1 (stereo not drawn) [Example 52, 5-(3-(6-(2-(4-(3,3-difluorocyclobutoxy)-6-methylpyridin-2-yl)acetamido)pyridazin-3-yl)pyrrolidin-1-yl)-N-((4-(trifluoromethyl)pyridin-2-yl)methyl)-1,3,4-thiadiazole-2-carboxamide]	< 100	< 100	
Cc1cccc(CNC(=O)c2nnc(N3CCC(c4ccc(NC(=O)Cc5cc(OC6CC(F)(F)C6)cc(C)n5)nn4)C3)s2)n1 (stereo not drawn) [Example 53, 5-(3-(6-(2-(4-(3,3-difluorocyclobutoxy)-6-methylpyridin-2-yl)acetamido)pyridazin-3-yl)pyrrolidin-1-yl)-N-((6-methylpyridin-2-yl)methyl)-1,3,4-thiadiazole-2-carboxamide]	< 100	< 100	
N-(pyridin-2-ylmethyl)-5-(1-(6-(2-(3-(trifluoromethoxy)phenyl)acetamido)pyridazin-3-yl)pyrrolidin-3-yl)-1,3,4-thiadiazole-2-carboxamide-2,2,2-trifluoroacetate [Example 10]	< 100		100 to 500
